Results reported in PubChem BioAssay (NCI).
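Cells were grown in 96-well plates and exposed to each compound for 48 hours at five concentrations; endpoints were interpolated linearly between bracketing concentrations, or set to the highest concentration if not reached. Abbreviation: GI50, concentration required for 50% inhibition of growth. TGI marks complete inhibition of growth.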

Key:
Test in all cases: inhibition of tumour cell growth, NCI panel, 48 h
[1] = tested on: UACC-257 melanoma
[2] = tested on: K-562 leukemia
[3] = tested on: T-47D breast
[4] = tested on: UO-31 renal
[5] = tested on: SF-539 CNS
[6] = tested on: SW-620 colon
[7] = tested on: U251 CNS
[8] = tested on: MDA-MB-435
[9] = tested on: MDA-MB-231 breast
[10] = tested on: OVCAR-4 ovarian
[11] = tested on: SF-295 CNS
[12] = tested on: HOP-92 NSCLC
[13] = tested on: IGROV1 ovarian
[14] = tested on: RPMI-8226 leukemia
[15] = tested on: COLO 205 colon
[16] = tested on: OVCAR-8 ovarian
[17] = tested on: MALME-3M melanoma
[18] = tested on: TK-10 renal
[19] = tested on: HOP-62 NSCLC
[20] = tested on: UACC-62 melanoma
[21] = tested on: OVCAR-3 ovarian
[22] = tested on: BT-549 breast
[23] = tested on: NCI/ADR-RES ovarian
[24] = tested on: NCI-H460 lung
[25] = tested on: MOLT-4 leukemia
[26] = tested on: HCT-15 colon
[27] = tested on: SN12C renal
[28] = tested on: HL-60(TB) leukemia
[29] = tested on: NCI-H226 lung
[30] = tested on: NCI-H23 lung
[31] = tested on: DU-145 prostate
[32] = tested on: SF-268 CNS
[33] = tested on: RXF 393 renal
[34] = tested on: CCRF-CEM leukemia
[35] = tested on: A549 NSCLC
[36] = tested on: SK-MEL-5 melanoma
[37] = tested on: LOX IMVI melanoma
[38] = tested on: HT29 colon
[39] = tested on: SK-OV-3 ovarian
[40] = tested on: SNB-75 CNS
[41] = tested on: NCI-H522 lung
[42] = tested on: SNB-19 CNS
[43] = tested on: ACHN renal
[44] = tested on: EKVX NSCLC
[45] = tested on: CAKI-1 renal
[46] = tested on: 786-0 renal
[47] = tested on: M14 melanoma
[48] = tested on: MCF7 breast
[49] = tested on: SK-MEL-28 melanoma
[50] = tested on: HCT-116 colon
[51] = tested on: KM12 colon
[52] = tested on: OVCAR-5 ovarian
[53] = tested on: PC-3 prostate
[54] = tested on: SK-MEL-2 melanoma

O=c1c(-c2ccccc2)coc2cc(OC/C(=N/O)c3ccc(F)cc3)ccc12
GI50 [1]: 10.2 µM
TGI [1]: 27.3 µM
GI50 [2]: 16.2 µM
TGI [2]: > 100 µM
GI50 [3]: 7.87 µM
TGI [3]: 68.5 µM
GI50 [4]: 17.4 µM
TGI [4]: 50.2 µM
GI50 [5]: 15.2 µM
TGI [5]: 29.6 µM
GI50 [6]: 17.1 µM
TGI [6]: 33.4 µM
GI50 [7]: 18.2 µM
TGI [7]: 36.8 µM
GI50 [8]: 20.9 µM
TGI [8]: 97.7 µM
GI50 [9]: 19.6 µM
TGI [9]: 43.4 µM
GI50 [10]: 13.7 µM
TGI [10]: 59.3 µM
GI50 [11]: 25.5 µM
TGI [11]: 82.4 µM
GI50 [12]: 18.8 µM
TGI [12]: 44.9 µM
GI50 [13]: 19.9 µM
TGI [13]: > 100 µM
GI50 [14]: 18.8 µM
TGI [14]: 59.7 µM
GI50 [15]: 18.9 µM
TGI [15]: 50.7 µM
GI50 [16]: 16.9 µM
TGI [16]: 43.4 µM
GI50 [17]: 10.1 µM
TGI [17]: 31.9 µM
GI50 [18]: 16.9 µM
TGI [18]: 39.5 µM
GI50 [19]: 27 µM
TGI [19]: 53.5 µM
GI50 [20]: 15.8 µM
TGI [20]: 31.8 µM
GI50 [21]: 19.7 µM
TGI [21]: 47.4 µM
GI50 [22]: 20.3 µM
TGI [22]: 41.8 µM
GI50 [23]: 23.9 µM
TGI [23]: 62.3 µM
GI50 [24]: 17.4 µM
TGI [24]: 38.2 µM
GI50 [25]: 24 µM
TGI [25]: > 100 µM
GI50 [26]: 21.3 µM
TGI [26]: 50.3 µM
GI50 [27]: 16.2 µM
TGI [27]: 34.2 µM
GI50 [28]: 15 µM
TGI [28]: 89.7 µM
GI50 [29]: 25.1 µM
TGI [29]: 77.7 µM
GI50 [30]: 19.3 µM
TGI [30]: 42.1 µM
GI50 [31]: 17.4 µM
TGI [31]: 36 µM
GI50 [32]: 21.5 µM
TGI [32]: 50.6 µM
GI50 [33]: 17.7 µM
TGI [33]: 37.5 µM
GI50 [34]: 26 µM
TGI [34]: > 100 µM
GI50 [35]: 13.6 µM
TGI [35]: 35.9 µM
GI50 [36]: 11.6 µM
TGI [36]: 23.9 µM
GI50 [37]: 44.1 µM
TGI [37]: > 100 µM
GI50 [38]: 27.8 µM
TGI [38]: > 100 µM
GI50 [39]: 15.4 µM
TGI [39]: 35.8 µM
GI50 [40]: 16.8 µM
TGI [40]: 92.9 µM
GI50 [41]: 14.5 µM
TGI [41]: 46 µM
GI50 [42]: 18.7 µM
TGI [42]: 53.5 µM
GI50 [43]: 22.4 µM
TGI [43]: 43.5 µM
GI50 [44]: 8.59 µM
TGI [44]: 26.1 µM
GI50 [45]: 0.0715 µM
TGI [45]: 26.3 µM
GI50 [46]: 19.3 µM
TGI [46]: 41.8 µM
GI50 [47]: 17.5 µM
TGI [47]: 41.3 µM
GI50 [48]: 25.9 µM
TGI [48]: > 100 µM
GI50 [49]: 19.2 µM
TGI [49]: > 100 µM
GI50 [50]: 16 µM
TGI [50]: 47.7 µM
GI50 [51]: 14.5 µM
TGI [51]: 33.1 µM
GI50 [52]: 18.1 µM
TGI [52]: 43.8 µM
GI50 [53]: 19 µM
TGI [53]: 45.9 µM

N=C(N)c1ccc(-c2ccc(-c3ccc(Cl)cc3)s2)nc1
GI50 [3]: 1.82 µM
TGI [3]: 4.49 µM
GI50 [8]: 1.65 µM
TGI [8]: 3.02 µM
GI50 [9]: 1.35 µM
TGI [9]: 2.74 µM
GI50 [10]: 1.64 µM
TGI [10]: 3.06 µM
GI50 [54]: 2.21 µM
TGI [54]: 4.89 µM
GI50 [31]: 1.7 µM
TGI [31]: 3.07 µM
GI50 [39]: 3.56 µM
TGI [39]: 18.1 µM
GI50 [43]: 1.65 µM
TGI [43]: 3 µM
GI50 [49]: 1.62 µM
TGI [49]: 2.97 µM
GI50 [52]: 1.56 µM
TGI [52]: 2.9 µM
